# Laboratory results as given in article PMC9646841, “A bead-based GPCR phosphorylation immunoassay for high-throughput ligand profiling and GRK inhibitor screening” (Communications Biology, 2022).
# Several values for one entry are separate records, joined by “and”; a condition that tells them apart may be missing. Equal entries are not always repeated. Square brackets hold non-standard residues; d marks the D form. Peptide text beside a SMILES is read from it. Cha = N[C@@H](CC1CCCCC1)C(=O)O; dCha = N[C@H](CC1CCCCC1)C(=O)O
# Legend:
# Type in all cases: cell-based
# [1] = biological target: T1, C5a1 (Homo sapiens, UniProt P21730); test: pT324/pS327-C5a1 7TM phosphorylation assay; details: for Emax: read-out: Emax (% Control C028) pT324/pS327-C5a1
# T1 construct: host or cells: Control-HEK293, ΔGRK2/3-HEK293, ΔGRK5/6-HEK293, stably expressing
# T1 sequence (P21730 1-350): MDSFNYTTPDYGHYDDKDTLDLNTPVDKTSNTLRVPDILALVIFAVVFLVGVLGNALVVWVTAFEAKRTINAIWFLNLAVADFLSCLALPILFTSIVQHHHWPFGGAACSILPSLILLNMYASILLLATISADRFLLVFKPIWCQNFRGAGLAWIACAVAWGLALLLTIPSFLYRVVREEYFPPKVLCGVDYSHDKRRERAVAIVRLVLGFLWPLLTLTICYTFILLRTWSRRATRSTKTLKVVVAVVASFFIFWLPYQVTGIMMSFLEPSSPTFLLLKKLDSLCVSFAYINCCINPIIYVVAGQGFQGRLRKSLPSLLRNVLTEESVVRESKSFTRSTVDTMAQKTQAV
# [2] = biological target: T1, C5a1; test: pS338/pT339-C5a1 7TM phosphorylation assay; details: for Emax: read-out: Emax (% Control C028) pS338/pT339-C5a1
# [3] = biological target: T1, C5a1; test: Total C5a1 loading control (np-C5a1 / anti-HA)
# [4] = Control-C5aR1-HEK293, C028 3 µM
# [5] = ΔGRK2/3-C5aR1-HEK293, C028 0.01 µM
# [6] = ΔGRK2/3-C5aR1-HEK293, C028 0.3 µM
# [7] = ΔGRK2/3-C5aR1-HEK293, C028 10 µM (concentration series)
# [8] = ΔGRK5/6-C5aR1-HEK293, C028 0.01 µM
# [9] = ΔGRK5/6-C5aR1-HEK293, C028 0.1 µM
# [10] = C028 0.01 µM, Control-C5aR1-HEK293
# [11] = C028 0.01 µM, ΔGRK2/3-C5aR1-HEK293
# [12] = C028 0.01 µM, ΔGRK5/6-C5aR1-HEK293
# [13] = C028 0.1 µM, Control-C5aR1-HEK293
# [14] = C028 0.1 µM, ΔGRK2/3-C5aR1-HEK293
# [15] = C028 0.1 µM, ΔGRK5/6-C5aR1-HEK293
# [16] = C028 3 µM, Control-C5aR1-HEK293
# [17] = C028 10 µM, ΔGRK5/6-C5aR1-HEK293, concentration series
compound,measurement,setting,value
"N=C(N)NCCC[C@@H](NC(=O)[C@H](CC1CCCCC1)NC(=O)[C@@H](CC1CCCCC1)NC(=O)[C@@H]1CCCN1C(=O)[C@H](CCCCN)NC(=O)[C@@H](N)Cc1ccccc1)C(=O)O [C028, FKP-(D-Cha)-Cha-r] (H-FKP[dCha][Cha][dR]-OH)",OD405 max pT324/pS327-C5a1,[1],1.26
same,OD405 min pT324/pS327-C5a1,[1],0.01
same,"pT324/pS327 phosphorylation, normalized","[1]; Control-C5aR1-HEK293, C028 0.01 µM",6.54% and 2.09% and 2.38% and -0.26% and 4.73% and 4.23% and 0.13% and 0.29%
same,"pT324/pS327-C5aR1 Phosphorylation Assay, raw signal","[1]; Control-C5aR1-HEK293, C028 0.1 µM",0.2603 and 0.2849 and 0.4452 and 0.4009 and 0.2355 and 0.392 and 0.2309 and 0.3621
same,"pT324/pS327-C5aR1 Phosphorylation Assay, raw signal",[1]; [4],0.8349 and 0.7369 and 1.3757 and 1.2873 and 1.162 and 1.2785 and 0.8805 and 0.8562
same,"pT324/pS327 phosphorylation, normalized",[1]; [4],120.88% and 95.08% and 81.14% and 86.44% and 112.69% and 137.00% and 71.21% and 88.89%
same,"pT324/pS327 phosphorylation, normalized","[1]; Control-C5aR1-HEK293, C028 10 µM (concentration series)",119.78% and 104.86% and 86.39% and 115.09% and 117.11% and 104.93% and 106.33% and 104.22%
same,Emax,[1]; Control-HEK293,100%
same,EC50,"[1]; pEC50 pT324/pS327-C5a1, Control-HEK293",501 nM
same,EC50,"[1]; pEC50 pT324/pS327-C5a1, ΔGRK2/3-HEK293",631 nM
same,"pT324/pS327-C5aR1 Phosphorylation Assay, raw signal",[1]; [5],0.1906 and 0.2011 and 0.1388 and 0.1623 and 0.1923 and 0.1741 and 0.2414 and 0.2236
same,"pT324/pS327 phosphorylation, normalized",[1]; [5],5.63% and 2.70% and -1.25% and 2.28% and 0.48% and 3.13% and 6.18% and 3.90%
same,"pT324/pS327-C5aR1 Phosphorylation Assay, raw signal","[1]; ΔGRK2/3-C5aR1-HEK293, C028 0.1 µM",0.3121 and 0.3742 and 0.1921 and 0.224 and 0.2885 and 0.3186 and 0.3064
same,"pT324/pS327-C5aR1 Phosphorylation Assay, raw signal",[1]; [6],0.5648 and 0.5979 and 0.3035 and 0.3146 and 0.4385 and 0.4523 and 0.4291 and 0.4848
same,"pT324/pS327 phosphorylation, normalized",[1]; [6],24.79% and 33.69% and 32.00% and 35.01% and 19.88% and 27.63% and 33.40% and 34.58%
same,"pT324/pS327 phosphorylation, normalized","[1]; ΔGRK2/3-C5aR1-HEK293, C028 1 µM",57.50% and 41.29% and 46.21% and 58.02% and 41.79% and 38.21% and 68.95% and 53.84%
same,"pT324/pS327-C5aR1 Phosphorylation Assay, raw signal","[1]; ΔGRK2/3-C5aR1-HEK293, C028 3 µM",0.9175 and 0.9435 and 0.5986 and 0.5479 and 0.9015 and 0.9692 and 0.812 and 0.8433
same,"pT324/pS327-C5aR1 Phosphorylation Assay, raw signal",[1]; [7],0.9308 and 0.9846 and 0.7517 and 0.6067 and 1.0697 and 0.9407 and 1.15 and 0.9163
same,"pT324/pS327 phosphorylation, normalized",[1]; [7],96.12% and 84.19% and 64.50% and 63.55% and 84.08% and 59.71% and 82.71% and 58.42%
same,Emax,[1]; ΔGRK2/3-HEK293,79.8%
same,"pT324/pS327-C5aR1 Phosphorylation Assay, raw signal",[1]; [8],0.1198 and 0.124 and 0.1546 and 0.0999 and 0.1081 and 0.164 and 0.1821
same,"pT324/pS327 phosphorylation, normalized",[1]; [8],-1.74% and -1.49% and 1.46% and 0.52% and 6.96% and 2.95% and -0.44% and 0.0738%
same,"pT324/pS327-C5aR1 Phosphorylation Assay, raw signal",[1]; [9],0.1319 and 0.1326 and 0.1302 and 0.1434 and 0.1164 and 0.1306 and 0.173 and 0.1664
same,"pT324/pS327 phosphorylation, normalized",[1]; [9],-0.96% and 0.29% and 1.64% and 0.38% and 2.18% and 3.49% and 1.29% and 7.61%
same,"pT324/pS327-C5aR1 Phosphorylation Assay, raw signal","[1]; ΔGRK5/6-C5aR1-HEK293, C028 0.3 µM",0.1652 and 0.1629 and 0.1483 and 0.1906 and 0.1747 and 0.2126 and 0.1807
same,Emax,[1]; ΔGRK5/6-HEK293,27.8%
same,OD405 max pS338/pT339-C5a1,[2],0.97
same,OD405 min pS338/pT339-C5a1,[2],0.05
same,pS338/pS339 normalized,[2]; [10],0.99% and 0.92% and 2.21% and 3.33% and 1.14% and 2.13% and -1.29% and -0.74%
same,"pS338/pS339 signal, raw",[2]; [10],0.1155 and 0.1223 and 0.1459 and 0.1501 and 0.1235 and 0.1345 and 0.146 and 0.1476
same,pS338/pS339 normalized,[2]; [11],2.29% and 0.59% and -0.76% and -0.97% and -2.55% and -1.82% and -0.06% and 0.89%
same,"pS338/pS339 signal, raw",[2]; [11],0.0952 and 0.0932 and 0.1355 and 0.1425 and 0.1714 and 0.1765 and 0.119 and 0.1119
same,pS338/pS339 normalized,[2]; [12],-0.52% and 1.83% and 5.79% and 7.02% and 0.41% and 6.78% and -2.15% and -0.66%
same,"pS338/pS339 signal, raw",[2]; [12],0.1914 and 0.1791 and 0.1104 and 0.1268 and 0.0959 and 0.1124 and 0.1275 and 0.1571
same,"pS338/pS339 signal, raw",[2]; [13],0.1875 and 0.2099 and 0.2083 and 0.1715 and 0.263 and 0.2723 and 0.28 and 0.2721
same,pS338/pS339 normalized,[2]; [14],4.55% and 4.75% and 2.09% and -0.74% and 0.95% and 1.57% and 2.54% and 3.37%
same,pS338/pS339 normalized,[2]; [15],6.77% and 12.22% and 6.57% and 4.14% and 6.71% and 9.50% and 2.76% and 5.82%
same,"pS338/pS339 signal, raw",[2]; [15],0.1912 and 0.1825 and 0.1703 and 0.1709 and 0.1421 and 0.1595 and 0.2215 and 0.2673
same,pS338/pS339 normalized,[2]; [16],78.61% and 86.74% and 85.12% and 75.44% and 123.11% and 90.88% and 72.00% and 99.45%
same,"pS338/pS339 signal, raw",[2]; [16],0.8634 and 0.695 and 1.1554 and 0.7958 and 0.9051 and 1.0337 and 0.9787 and 0.9442
same,pS338/pS339 normalized,"[2]; C028 10 µM, Control-C5aR1-HEK293, concentration series",92.58% and 105.20% and 87.15% and 107.72% and 114.82% and 97.73% and 96.48% and 106.05%
same,"pS338/pS339 signal, raw","[2]; C028 10 µM, Control-C5aR1-HEK293, last 0/10 µM pair of Control block",0.8171 and 0.9223 and 0.6743 and 0.8573 and 1.0399 and 1.1081
same,"pS338/pS339 signal, raw","[2]; C028 10 µM, Control-C5aR1-HEK293 beside ΔGRK5/6 block",1.1983 and 1.0585 and 0.7547 and 0.8921 and 1.3122 and 1.2783 and 1.4177 and 1.3015
same,pS338/pS339 normalized,[2]; [17],60.81% and 85.60% and 54.29% and 47.10% and 52.27% and 73.34% and 65.73% and 72.42%
same,"pS338/pS339 signal, raw",[2]; [17],0.6953 and 0.6053 and 0.6054 and 0.6811 and 0.925 and 0.7569 and 1.0104 and 1.1456
same,Emax,[2]; Control-HEK293,100%
same,EC50,"[2]; pEC50 pS338/pT339-C5a1, Control-HEK293",631 nM
same,EC50,"[2]; pEC50 pS338/pT339-C5a1, ΔGRK2/3-HEK293",1000 nM
same,Emax,[2]; ΔGRK2/3-HEK293,55.2%
same,Emax,[2]; ΔGRK5/6-HEK293,63.9%
same,"np signal, raw",[3]; [10],1.7187 and 1.7849 and 1.2842 and 1.2491 and 1.8947
same,"np signal, raw",[3]; [11],1.3719 and 1.658 and 1.494 and 1.3769 and 1.8182
same,"np signal, raw",[3]; [13],1.8405 and 1.7894 and 1.13 and 1.0755 and 1.6047
same,"np signal, raw",[3]; [14],1.6138 and 1.8688 and 1.3994 and 1.4066 and 1.6881
same,"np signal, raw",[3]; [15],1.983 and 1.7745 and 1.5114 and 1.8261 and 1.6189
